This is an account of results in patent US20260284009A1, “COMPOUNDS FOR NOS-RELATED CANCERS AND METHODS OF USE” (YISSUM RESEARCH DEVELOPMENT COMPANY OF THE HEBREW …, priority 2023, published 2026).

One assay relates to iNOS. The assay is described as follows: iNOS expression level in U87-MG cells. It is filed as cell-based, human. Particulars: compared to the control treatment, not statistically significant (FIG. 14).
The test system of a further assay is U87-MG-xenografted mice. The assay is described as follows: Survival of U87-MG-xenografted mice. The assay is classed as in vivo. Particulars: 80 or 120 mg/kg 7-NI daily, vs saline vehicle.
The subject of assay [1] is U87-MG cells. The assay is described as follows: Western blot of U87-MG cells (3-Ntyr, CD70, iNOS, nNOS). The assay is classed as cell-based, human. Particulars: vs control and vehicle. As to the method:
Human glioblastoma U87-MG cells were obtained from the American Type Culture Collection (ATCC) and maintained in Dulbecco's modified Eagle's Medium (DMEM) and Ham's F-12 (1:1) supplemented with 10% fetal bovine serum, 2 mM L-glutamine, and 100 U/ml penicillin-G/[…] streptomycin in the humidified atmosphere (37° C., 5% CO2). Cells were plated onto 25 cm^2 and 75 cm^2 at a density of […] respectively for Western blotting (WB) and 1×10^5 for immunofluorescence. The U87-MG cells were treated with 100 μM 7-nitroindazole (7-NI) for 24 hr. This concentration was confirmed in the dose-response experiment (FIG. 7) using an MTT viability assay.
Cells were lysed in ice-cold RIPA buffer containing 50 mM Tris-HCl, 1% Nonidet P-40, 0.25% sodium deoxycholate, 150 mM NaCl, protease-, and phosphatase inhibitor cocktails, pH 7.4. After sonication, the lysates were centrifuged at 17,000 g for 30 min at 4° C., and the supernatant was collected. The protein concentrations were determined with the BCA protein assay. Proteins were resolved by SDS-PAGE, transferred to a PVDF membrane, and probed with the following antibodies: anti-CD70 (rabbit, diluted 1:1000), and anti-3-Nitrotyrosine (rabbit, diluted 1:5000) from Abcam. All primary antibodies, except anti-3-Nitrotyrosine, were purchased from Cell Signaling Technology. The blots were then visualized using an enhanced chemiluminescence (ECL) system.
In general terms: A western blot detects proteins with antibodies after separation by electrophoresis.

Assay [2] has as its system U87-MG cells. The assay is described as follows: Xenograft glioblastoma model, U87-MG cells in NSG mice: tumor volume and mass. The assay is classed as in vivo. The procedure: A xenograft glioblastoma model was generated by injecting 1.0×10^6 U87-MG cells (in PBS) into the subcutaneous tissue in the flank of NOD SCID Gamma (NSG) male (n=40) and female mice (n=5). Mice were 6-7 weeks old at time of injections. Mice were divided into groups and treatment was started when tumor volume reached 50 mm^3.
An initial experiment was performed with two treatment groups of mice, the treatment groups were: 0.1% DMSO (“Vehicle”) (n=10) and 80 mg/kg of 7-NI (n=10). Treatments were administered intraperitoneally daily for 8 days. Treatment started after five days from the injection with U87-MG cells. After one month, all mice were euthanized, and tumors were harvested for ex vivo analysis and histology. Tumor volume was measured using calipers and was calculated as (length*width^2)/2. The tumor volume of all mice were tabulated, as well the best 4-5 mice in terms of treatment efficacy (smallest tumor volume).
A dose response experiment was performed in the mice, the treatment groups were 0.1% DMSO (“Vehicle”) (n=8), 20 mg/kg 7-NI (n=8), 40 mg/kg 7-NI (n=8), and 80 mg/kg 7-NI (n=8). Treatments were administered intraperitoneally daily, for 14 days. Treatment started after five days from the injection with U87-MG cells. All mice were euthanized, and tumors were harvested for ex vivo analysis and histology. Tumor volume was measured using calipers and was calculated as (length*width^2)/2. The tumor volume of all mice were tabulated, as well the tumor mass.

[3] abbreviates: 7-NI, not statistically significantly.
Where [4] appears, read: highest dosage of 7-NI (80 mg/kg) in dose response experiment, daily for 14 days, vs lower dosages.
The mark [5] stands for this setting: reduced dosages, as low as 20 mg/kg 7-NI intraperitoneally daily for 14 days, vs vehicle.

As for `CC(=N)NCCCC[C@H](N)C(=O)O` [L-NIL, N^6-(1-iminoethyl)-L-lysine], the entries for the “expression level of iNOS” value in the assay on iNOS (higher dose) and in the assay on iNOS (lower dose) were “unchanged” and “slightly elevated”, respectively.

For the molecule `O=[N+]([O-])c1cccc2cn[nH]c12` [7-NI, 7-nitroindazole], in the assay with U87-MG-xenografted mice, the survival entry was “increased survival”. Also, the 3-Ntyr levels result with U87-MG cells [1] (100 μM 7-NI, 24 hr) is recorded as “significantly reduced”. Besides, the “expression level of iNOS” value in the assay with U87-MG cells [1] (7-NI) was “unchanged”. Moreover, in the assay on U87-MG cells [1] (setting [3]), the “expression level of CD70” value is given as “slightly decreased” and the “expression level of nNOS” value is “slightly decreased”. Besides, the average tumor size result with U87-MG cells [2] (NSG mice, 80 mg/kg 7-NI intraperitoneally daily for 8 days, vs vehicle) is given as “significantly smaller”. Moreover, in the assay on U87-MG cells [2] (setting [4]), the average tumor size entry is given as “larger reduction” and the tumor mass entry was “larger reduction”. For the same molecule, in the assay on U87-MG cells [2] (setting [5]), the average tumor size entry is reported as “significantly smaller” and the tumor mass result is reported as “smaller”.
